Source: the RepoRT retention time repository (doi:10.1016/j.foodchem.2012.08.062)

test: RP, Waters ACQUITY UPLC BEH Shield RP18, 150 × 3 mm, 1.7 µm, 40 °C, 0.5 mL/min, estimated dead time 1.4 min; A: water + 0.1% formic acid; B: acetonitrile + 0.1% formic acid; gradient (min/%B) 0/0 9.91/26 18.51/65 18.76/100 20.76/100; conditions: stereoisomer not certain

SMILES | LC retention time [min]
O=C(O)c1ccccc1O | 14.5
O=C(O)C=Cc1ccc(O)cc1 | 12.7
COc1cc(C=CC(=O)O)ccc1O | 12.8
O=C1c2c(O)cc(O)cc2OC(c2ccc(O)cc2)C1O (stereo not given) | 14.8
COc1cc(CCC(=O)O)ccc1O | 11.3
O=C(C=Cc1ccc(O)c(O)c1)OC1CC(O)(C(=O)O)CC(O)C1O (stereo not given) | 8.3
O=C(CCc1ccc(O)cc1)c1c(O)cc(O)cc1O | 17
CCCOC(=O)c1cc(O)c(O)c(O)c1 | 13.8
O=c1cc(-c2ccc(O)c(O)c2)oc2cc(OC3OC(CO)C(O)C(O)C3O)cc(O)c12 (stereo not given) | 12.7
O=C(CCc1ccc(O)cc1)c1c(O)cc(O)cc1OC1OC(CO)C(O)C(O)C1O (stereo not given) | 13.7
O=C1CC(c2ccc(O)cc2)Oc2cc(O)cc(O)c21 (stereo not given) | 17.1
O=c1cc(-c2ccc(O)cc2)oc2cc(OC3OC(CO)C(O)C(O)C3O)cc(O)c12 (stereo not given) | 13.7
O=C(O)c1ccc(O)c(O)c1 | 7.05
Oc1cc(O)c2c(c1)OC(c1ccc(O)c(O)c1)C(O)C2c1c(O)cc(O)c2c1OC(c1ccc(O)c(O)c1)C(O)C2 (stereo not given) | 10.2
O=C(O)Cc1ccc(O)cc1 | 8.61
O=C1c2c(O)cc(O)cc2OC(c2ccc(O)c(O)c2)C1O (stereo not given) | 13.3
CC1OC(OC2C(Oc3cc(O)c4c(c3)OC(c3ccc(O)cc3)CC4=O)OC(CO)C(O)C2O)C(O)C(O)C1O (stereo not given) | 13
O=C(O)CCc1ccc(O)c(O)c1 | 8.65
COc1cc(C=CC(=O)O)cc(OC)c1O | 12.7
O=C(O)c1cc(O)c(O)c(O)c1 | 4.79

More lines, now with the values ahead:

LC retention time [min] | SMILES
13.7 | O=c1c(OC2OC(CO)C(O)C2O)c(-c2ccc(O)c(O)c2)oc2cc(O)cc(O)c12 (stereo not given)
12.6 | CC1OC(OCC2OC(Oc3c(-c4ccc(O)c(O)c4)oc4cc(O)cc(O)c4c3=O)C(O)C(O)C2O)C(O)C(O)C1O (stereo not given)
13.8 | O=c1c(OC2OC(CO)C(O)C(O)C2O)c(-c2ccc(O)cc2)oc2cc(O)cc(O)c12 (stereo not given)
18.4 | O=c1c(O)c(-c2ccc(O)cc2)oc2cc(O)cc(O)c12
14 | CC1OC(Oc2c(-c3ccc(O)c(O)c3)oc3cc(O)cc(O)c3c2=O)C(O)C(O)C1O (stereo not given)
18.1 | COc1cc(-c2oc3cc(O)cc(O)c3c(=O)c2O)ccc1O
16.7 | O=c1c(O)c(-c2ccc(O)c(O)c2)oc2cc(O)cc(O)c12
18 | O=c1cc(-c2ccc(O)cc2)oc2cc(O)cc(O)c12
16.6 | O=c1cc(-c2ccc(O)c(O)c2)oc2cc(O)cc(O)c12
20.3 | O=c1c(O)c(-c2ccccc2)oc2cc(O)cc(O)c12
